Data published in patent publication US20230035690A1, “MACHINE LEARNING TOOLS AND A PROCESS TO DISCOVER NEW NATURAL PRODUCTS BY LINKING GENOMES AND M[…] FUNGI” (Northwestern University, priority 2019, published 2023).

Tested on: A. fumigatus IDO mutants
Assay: growth inhibition test against A. fumigatus IDO mutants
Assay type: cell-based
Settings: tested against A. fumigatus IDO mutants
Excerpt: In addition to re-purposing duplicated primary metabolism genes to have a biosynthetic role, fungi also utilize duplicated genes from primary metabolism as a form of self-resistance (Refs. A34, A35; incorporated by reference in their entireties). This Type II repurposing represents a particularly attractive avenue for drug discovery, as the duplicated gene will often provide insight into the mechanism of action of the encoded secondary metabolite. Several examples of such Type II repurposing have been discovered by targeting clusters with duplicate resistance targets. The proteasome inhibitor fellutamide B, for example, was discovered due to the presence of a duplicated proteasome subunit within its BGC (36). Similarly, the BGC encoding the methionine aminopeptidase inhibitor fumagillin contains both type I and type II methionine aminopeptidase genes in the gene cluster (FIG. 10) (Ref. A37; incorporated by reference in its entirety). While it is likely that many of the IDOs contained within the BGCs depicted in FIGS. 8 and 9 represent Type I biosynthetic enzymes that provide kynurenine for secondary metabolite synthesis, it is also possible that they represent Type II duplicated gene targets that serve to protect the producing organism against the biosynthetic product. […]

Compound: Nc1ccccc1C(=O)NC1CC(=O)c2ccccc2NC1=O (stereo not shown) [terreazepine, 2-amino-N-(2,3,4,5-tetrahydro-2,5-dioxo-1H-1-benzazepin-3-yl)benzamide]
- growth inhibitory activity: no growth inhibitory activity was observed
